Experiments:
Cladosporium cucumerinum [1] = assay: Growth inhibition of Cladosporium cucumerinum after 2 to 3 days by bioautographic assay; assay type: functional, organism-based
Artemia salina = assay: Toxicity against Artemia salina; assay type: organism-based; conditions: in vivo
Cladosporium cucumerinum [2] = assay: Antifungal activity against Cladosporium cucumerinum at 1.5 to 50 ug/spot after 2 to 3 days by bioautographic assay; assay type: functional

Compound: C=C(C)CCC[C@]1(C)OC(=O)[C@]23CC=C4[C@@H](CC[C@H]5C(C)(C)[C@@H](O[C@@H]6OC[C@@H](O)[C@H](O)[C@H]6O[C@@H]6O[C@H](C)[C@@H](O[C@@H]7O[C@H](CO)[C@@H](O)[C@H](O[C@@H]8O[C@H](CO)[C@@H](O)[C@H](OC)[C@H]8O)[C@H]7O)[C@H](O)[C@H]6O)CC[C@]45C)[C@]2(C)CC(=O)[C@@H]31 [DESULFATED HEMOIEDEMOSIDE A]
- Activity (Cladosporium cucumerinum [1]): Dose-dependent effect
- LC50 (Artemia salina): 424.5 ppm

Compound: C=C(C)CCC[C@]1(C)OC(=O)[C@]23CC=C4[C@@H](CC[C@H]5C(C)(C)[C@@H](O[C@@H]6OC[C@@H](OS(=O)(=O)[O-])[C@H](O)[C@H]6O[C@@H]6O[C@H](C)[C@@H](O[C@@H]7O[C@H](COS(=O)(=O)[O-])[C@@H](O)[C@H](O[C@@H]8O[C@H](CO)[C@@H](O)[C@H](OC)[C@H]8O)[C@H]7O)[C@H](O)[C@H]6O)CC[C@]45C)[C@]2(C)CC(=O)[C@@H]31.[Na+].[Na+] [HEMOIEDEMOSIDE A]
- Activity (Cladosporium cucumerinum [1]): Dose-dependent effect
- LC50 (Artemia salina): 18.7 ppm
- inhibition zone (IZ) (Cladosporium cucumerinum [2]): 8 mm

Compound: CO[C@@H]1[C@@H](O)[C@H](O[C@@H]2[C@@H](O)[C@H](O[C@H]3[C@H](O)[C@@H](O)[C@H](O[C@H]4[C@H](O[C@H]5CC[C@]6(C)[C@@H]7C[C@H](O)[C@]89C(=O)O[C@@](C)(CCCC(C)C)[C@@]8(O)CC[C@@]9(C)C7=CC[C@H]6C5(C)C)OC[C@@H](OS(=O)(=O)[O-])[C@@H]4O)O[C@@H]3C)O[C@H](COS(=O)(=O)[O-])[C@H]2O)O[C@H](CO)[C@H]1O.[Na+].[Na+] [PATAGONICOSIDE A]
- inhibition zone (IZ) (Cladosporium cucumerinum [2]): 8 mm

From ChEMBL document CHEMBL1150590, “Cytotoxic and antifungal triterpene glycosides from the Patagonian sea cucumber Hemoiedema spectabilis” (J Nat Prod, 2002)
